Patent publication US20090054435A1, “Phenoxyalkanoic Acid Compound” (priority 2005, published 2009)

| melting point [°C] | SMILES |
| --- | --- |
| 90 to 91 | COc1ccc(C(=O)c2cccc(OCc3nc(-c4ccccc4)oc3C)c2)c(OCCOC(C)=O)c1 [Example 2, (5-methoxy-2-{3-[(5-methyl-2-phenyl-1,3-oxazol-4-yl)methoxy]benzoyl}phenoxy)ethyl acetate] |
| 198 to 199 | COc1ccc(C(=O)c2cccc(OCc3nc(-c4ccccc4)oc3C)c2)c(OCC(=O)O)c1 [Example 4, (5-methoxy-2-{3-[(5-methyl-2-phenyl-1,3-oxazol-4-yl)methoxy]benzoyl}phenoxy)acetic acid] |
| 144 to 145 | COc1ccc(C(C)(O)c2cccc(OCc3nc(-c4ccccc4)oc3C)c2)c(OCCOC(C)=O)c1 (stereo not drawn) [Example 5, [2-(1-hydroxy-1-{3-[(5-methyl-2-phenyl-1,3-oxazol-4-yl)methoxy]phenyl}ethyl)-5-methoxyphenoxy]ethyl acetate] |
| 148 to 149 | COc1ccc(C(C)(O)c2cccc(OCc3nc(-c4ccccc4)oc3C)c2)c(OCC(=O)O)c1 (stereo not drawn) [Example 6, [2-(1-hydroxy-1-{3-[(5-methyl-2-phenyl-1,3-oxazol-4-yl)methoxy]phenyl}ethyl)-5-methoxyphenoxy]acetic acid] |
| 129 to 130 | CCOC(c1cccc(OCc2nc(-c3ccccc3)oc2C)c1)c1ccc(OC)cc1OCC(=O)O (stereo not drawn) [Example 7, [2-(ethoxy{3-[(5-methyl-2-phenyl-1,3-oxazol-4-yl)methoxy]phenyl}methyl)-5-methoxyphenoxy]acetic acid] |
| 174 to 175 | Cc1oc(-c2ccccc2)nc1COc1ccc(C(=O)c2ccccc2OCC(=O)O)cc1 [Example 8, (2-{4-[(5-methyl-2-phenyl-1,3-oxazol-4-yl)methoxy]benzoyl}phenoxy)acetic acid] |
| 229 to 230 | Cc1oc(-c2ccccc2)nc1COc1ccc(C(=O)c2ccc(O)cc2OCC(=O)O)cc1 [Example 11, (5-hydroxy-2-{4-[(5-methyl-2-phenyl-1,3-oxazol-4-yl)methoxy]benzoyl}phenoxy)acetic acid] |
| 184 to 186 | CCOC(=O)COc1cc(O)ccc1C(=O)c1ccc(OCc2nc(-c3ccccc3)oc2C)cc1 [Example 12, ethyl (5-hydroxy-2-{4-[(5-methyl-2-phenyl-1,3-oxazol-4-yl)methoxy]benzoyl}phenoxy)acetate] |
| 100 to 102 | COc1ccc(C(=O)c2ccc(OCc3nc(-c4ccccc4)oc3C)cc2)c(OC(C)C(=O)O)c1 (stereo not drawn) [Example 13, 2-(5-methoxy-2-{4-[(5-methyl-2-phenyl-1,3-oxazol-4-yl)methoxy]benzoyl}phenoxy)propanoic acid] |
| 142 to 143 | COc1ccc(C(=O)c2ccc(OCc3nc(-c4ccccc4)oc3C)cc2)c(OCCC(=O)O)c1 [Example 15, 3-(5-methoxy-2-{4-[(5-methyl-2-phenyl-1,3-oxazol-4-yl)methoxy]benzoyl}phenoxy)propanoic acid] |
| 161 to 162 | CCC(Oc1cc(OC)ccc1C(=O)c1ccc(OCc2nc(-c3ccccc3)oc2C)cc1)C(=O)O (stereo not drawn) [Example 17, 2-(5-methoxy-2-{4-[(5-methyl-2-phenyl-1,3-oxazol-4-yl)methoxy]benzoyl}phenoxy)butanoic acid] |
| 87 to 88 | COc1ccc(C(=O)c2ccc(OCc3nc(-c4ccccc4)oc3C)cc2)c(OC(C(=O)O)C(C)C)c1 (stereo not drawn) [Example 18, 2-(5-methoxy-2-{4-[(5-methyl-2-phenyl-1,3-oxazol-4-yl)methoxy]benzoyl}phenoxy)-3-methylbutanoic acid] |
| 166 to 167 | COc1ccc(C(=O)c2ccc(OCc3nc(-c4ccccc4)oc3C)cc2)c(OC(F)(F)C(=O)O)c1 [Example 19, difluoro (5-methoxy-2-{4-[(5-methyl-2-phenyl-1,3-oxazol-4-yl)methoxy]benzoyl}phenoxy)acetic acid] |
| 139 to 140 | CCCC(Oc1cc(OC)ccc1C(=O)c1ccc(OCc2nc(-c3ccccc3)oc2C)cc1)C(=O)O (stereo not drawn) [Example 20, 2-(5-methoxy-2-{4-[(5-methyl-2-phenyl-1,3-oxazol-4-yl)methoxy]benzoyl}phenoxy)pentanoic acid] |
| 199 to 201 | COc1ccc(C(=O)c2ccc(OCc3nc(-c4ccccc4)oc3C)cc2)c(OC2(C(=O)O)CCC2)c1 [Example 23, 1-(5-methoxy-2-{4-[(5-methyl-2-phenyl-1,3-oxazol-4-yl)methoxy]benzoyl}phenoxy)cyclobutanecarboxylic acid] |
| 145 to 147 | COc1ccc(C(=O)c2ccc(OCc3nc(-c4ccccc4)sc3C)cc2)c(OC(C)(C)C(=O)O)c1 [Example 29, 2-(5-methoxy-2-{4-[(5-methyl-2-phenyl-1,3-thiazol-4-yl)methoxy]benzoyl}phenoxy)-2-methylpropanoic acid] |
| 165 to 167 | COc1ccc(C(=O)c2ccc(OCc3coc(-c4ccccc4)n3)cc2)c(OC(C)(C)C(=O)O)c1 [Example 32, 2-(5-methoxy-2-{4-[(2-phenyl-1,3-oxazol-4-yl)methoxy]benzoyl}phenoxy)-2-methylpropanoic acid] |
| 182 to 183 | COc1ccc(C(=O)c2ccc(OCc3nc(-c4cccc(OS(C)(=O)=O)c4)oc3C)cc2)c(OC(C)(C)C(=O)O)c1 [Example 37, 2-{5-methoxy-2-[4-({5-methyl-2-[3-(methanesulfonyloxy)phenyl]-1,3-oxazol-4-yl}methoxy)benzoyl]phenoxy}-2-methylpropanoic acid] |
| 81 to 82 | COc1ccc(C(=O)c2ccc(OCCc3nc(-c4ccccc4)oc3C)cc2)c(OC(C)(C)C(=O)O)c1 [Example 38, 2-(5-methoxy-2-{4-[2-(5-methyl-2-phenyl-1,3-oxazol-4-yl)ethoxy]benzoyl}phenoxy)-2-methylpropanoic acid] |
| 119 to 120 | COc1ccc(O[C@H](C)C(=O)O)c(C(=O)c2ccc(OCc3nc(-c4ccccc4)oc3C)cc2)c1 [Example 39, (2R)-2-(4-methoxy-2-{4-[(5-methyl-2-phenyl-1,3-oxazol-4-yl)methoxy]benzoyl}phenoxy)propanoic acid] |
| 58 to 60 | COc1ccc(C(=O)c2ccc(OCc3ccccc3)nc2)c(OC(C)(C)C(=O)OC(C)(C)C)c1 [Example 45, tert-butyl 2-(2-{[6-(benzyloxy)pyridin-3-yl]carbonyl}-5-methoxyphenoxy)-2-methylpropanoate] |
| 167.5 to 168.5 | COc1ccc(C(=O)c2ccc(Oc3ccccc3)nc2)c(OC(C)(C)C(=O)O)c1 [Example 51, 2-{5-methoxy-2-[(6-phenoxypyridin-3-yl)carbonyl]phenoxy}-2-methylpropanoic acid] |
| 164.5 to 165.5 | COc1ccc(C(=O)c2ccc(OCc3nc(-c4ccccc4)oc3C)nc2)c(O[C@H](C)C(=O)O)c1 [Example 54, (2R)-2-[5-methoxy-2-({6-[(5-methyl-2-phenyl-1,3-oxazol-4-yl)methoxy]pyridin-3-yl}carbonyl)phenoxy]propanoic acid] |
| 169 to 170 | COc1ccc(C(=O)c2ccc(OCc3nc(-c4ccccc4)oc3C)cc2)c(O[C@@H](C)C(=O)O)c1 [Example 57, (2S)-2-(5-methoxy-2-{4-[(5-methyl-2-phenyl-1,3-oxazol-4-yl)methoxy]benzoyl}phenoxy)propanoic acid] |
